Source: patent US10555987B2, “GHRH agonists for the treatment of ischemic disorders” (UNIVERSITY OF MIAMI, priority 2012, dated 2020)
Marks after values point to notes of the source that are not given here. Non-standard residues stand in square brackets, D forms with d. Residues, ends and D or L forms follow the SMILES beside them. *: point of attachment. Desaminotyrosyl = O=C(CCc1ccc(O)cc1)*; NMeY = CN[C@@H](Cc1ccc(O)cc1)C(=O)O; Agmatine = N=C(N)NCCCCN*; Nle = CCCC[C@H](N)C(=O)O; Orn = NCCC[C@H](N)C(=O)O; Abu = CC[C@H](N)C(=O)O

Legend:
GHRH receptor [1] = molecular target: T1, GHRH receptor (Homo sapiens, UniProt Q02643); experiment: Receptor binding in vitro, 125I-labeled [His1,Nle27]-hGHRH(1-32)NH2, membrane receptors of human anterior pituitary cells (Table 14); conditions: for Relative affinity (Binding potency) compared to JI-38: JI-38 = 1; for Relative affinity (Binding potency) compared to hGHRH(1-29): hGHRH(1-29)NH2 = 1
T1 sequence (Q02643 23-423): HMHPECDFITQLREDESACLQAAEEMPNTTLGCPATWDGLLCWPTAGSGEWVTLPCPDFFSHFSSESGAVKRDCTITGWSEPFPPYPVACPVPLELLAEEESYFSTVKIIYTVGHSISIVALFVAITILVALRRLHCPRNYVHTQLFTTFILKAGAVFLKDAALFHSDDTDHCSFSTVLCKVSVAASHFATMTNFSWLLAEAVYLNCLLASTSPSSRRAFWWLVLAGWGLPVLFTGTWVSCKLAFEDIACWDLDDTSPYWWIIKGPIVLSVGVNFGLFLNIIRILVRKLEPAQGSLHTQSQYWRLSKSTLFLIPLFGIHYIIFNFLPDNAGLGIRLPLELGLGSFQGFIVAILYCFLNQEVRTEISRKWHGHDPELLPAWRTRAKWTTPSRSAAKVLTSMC
From the text: Normal human pituitary was purchased from the National Hormone and Peptide Program (UCLA Medical Center, Torrance, Calif.).

GH release [2] = experiment: In vivo endocrine activity, GH release after subcutaneous administration (Table 9); conditions: rat, subcutaneous (s.c.) injection
Procedure: Subcutaneous Administration. Adult male rats were used and anesthetized with pentobarbital (6 mg/100 g, b.w.), by i.p. injection. […] Blood samples were taken from the jugular vein 5, 15 and/or 30 minutes after the injection. The blood samples were centrifuged, plasma was removed and the GH level was measured byELISA. The results are summarized in terms of potency in Table 9.

GH release [3] = experiment: GH releasing potency in vivo, subcutaneous administration (Example 14, Table 12); design: species or system rat; conditions: s.c.; for Serum GH level at selected time after injection (ng/ml), 0 min / Serum GH level at selected time after injection (ng/ml), 15 min / Serum GH level at selected time after injection (ng/ml), 30 min: male rats, dose 3 μg/kg, mean ± SEM
Procedure: Male Sprague-Dawley rats, weighing 200-250 g, were purchased from Charles River Laboratory (Wilmington, Mass.) and used for experiments. All animal procedures were approved by the Veterans Affairs Animal Care and Use Committee and were conducted in accordance with additional institutional guidelines as well. Briefly, groups of 5-6 animals were used in each experiment. The rats were anesthetized with 50 mg/kg of sodium pentobarbital (Nembutal, Lundbeck Inc., Deerfield, Ill.). Twenty min after inducing anesthesia, GHRH(1-29)NH2, JI-38, or new analogs were injected into the animals intravenously (i.v.) or subcutaneously (s.c.). The peptides were dissolved in 0.01 M acetic acid to get 1 μg/μl stock solution, and then diluted with 5% mannitol. Control rats received 5% mannitol only. Blood samples were collected from the jugular vein at selected times and were used for serum preparation. Concentrations of GH in rat sera were determined by ELISA. The relative potencies of tested peptides were calculated using GHRH(1-29)NH2 and JI-38 for comparison, whose potency was defined as 1. The equivalent dosage of GHRH(1-29)NH2 to reach the same level of serum growth hormone release after injection of the specific tested peptide was determined from a GHRH(1-29)NH2 standard curve using Origin 6.0 software. […] Serum GH was determined using the rat Growth Hormone ELISA kit (ALPCO Diagnostics, Mill Valley, Calif.) according to the manufacturer's instruction. Absorbance at 405 nm was measured by a Victor 3 Multi-label Counter (Perkin-Elmer, Waltham, Md.).

GHRH receptor [4] = molecular target: T1, GHRH receptor; experiment: GHRH receptor binding, competition with 125I-labeled JV-1-42, human pituitary membrane homogenates (Table 7); design: Normal human pituitaries were purchased from the National Hormone and Peptide Program; tissue National Hormone and Peptide Program (A.F. Parlow, Harbor-UCLA Medical Center, Torrance, Calif.); host or cells: normal human pituitary, membrane fraction; conditions: for Relative affinity (Binding potency) vs JI-38: JI-38 = 1, Table 7
From the text: Normal human pituitaries were purchased from the National Hormone and Peptide Program (A.F. Parlow, Los Angeles, County Harbor-UCLA Medical Center, Torrance, Calif.).

GH release [5] = experiment: In vivo endocrine activity, GH release after intravenous administration (Table 8); conditions: rat, i.v. injection
Procedure: In vivo tests on endocrine activity of new GHRH agonists (Intravenous administration). For in vivo tests based on intravenous administration, adult male Sprague-Dawley rats were anesthetized with pentobarbital (6 mg/100/g, b.w.), and GHRH agonists were injected 20 minutes after the injection of pentobarbital. Blood samples were taken from the jugular vein (pretreated level), immediately after hGHRH(1-29)NH2 injection (as a control) or after hGHRH analogs injection. Blood samples were taken from the jugular vein 5, 15 and 30 minutes after the injection. The blood samples were centrifuged, plasma was removed and the GH level was measured by ELISA.

Compound	Relative affinity (Binding potency) compared to JI-38 (GHRH receptor [1])	Relative affinity (Binding potency) compared to hGHRH(1-29) (GHRH receptor [1])	GH releasing potency relative to JI-38 (=1) (GH release [2]; 15 min after)	GH releasing potency relative to JI-38 (=1) (GH release [2]; 30 min after)	Serum GH level at selected time after injection (ng/ml), 0 min (GH release [3])	Serum GH level at selected time after injection (ng/ml), 15 min (GH release [3])	Serum GH level at selected time after injection (ng/ml), 30 min (GH release [3])	GH-releasing potency after s.c. administration (in words) (GH release [3])	Relative potency compared to GHRH(1-29), 15 min (GH release [3])	Relative potency compared to JI-38, 15 min (GH release [3])	Relative potency compared to GHRH(1-29), 30 min (GH release [3])	Relative potency compared to JI-38, 30 min (GH release [3])	Relative affinity (Binding potency) vs JI-38 (GHRH receptor [4])	GHRH receptor binding affinity (in words) (GHRH receptor [1]; compared to JI-38)	IC50 (GHRH receptor [4]; 125I-JV-1-42, human pituitary membranes, Table 7)	GH releasing potency in vivo relative to JI-38 (=1) (GH release [5]; 5 min after)	GH releasing potency in vivo relative to JI-38 (=1) (GH release [5]; 15 min after)	GH releasing potency in vivo relative to JI-38 (=1) (GH release [5]; 30 min after)
CCCC[C@H](NC(=O)[C@@H](NC(=O)[C@H](CC(=O)O)NC(=O)[C@H](CCC(N)=O)NC(=O)[C@H](CC(C)C)NC(=O)[C@H](CC(C)C)NC(=O)[C@H](CCCN)NC(=O)[C@H](CCCNC(=N)N)NC(=O)[C@H](C)NC(=O)[C@H](CO)NC(=O)[C@H](CC(C)C)NC(=O)[C@H](CCC(N)=O)NC(=O)[C@H](CC)NC(=O)[C@H](CC(C)C)NC(=O)[C@@H](NC(=O)[C@H](CCCN)NC(=O)[C@H](CCCNC(=N)N)NC(=O)[C@H](Cc1ccc(O)cc1)NC(=O)[C@H](CO)NC(=O)[C@H](CCC(N)=O)NC(=O)[C@@H](NC(=O)[C@H](Cc1ccccc1)NC(=O)[C@@H](NC(=O)[C@H](C)NC(=O)[C@H](CC(=O)O)NC(=O)[C@@H](C)NC(=O)CCc1ccc(O)cc1)[C@@H](C)CC)[C@@H](C)O)C(C)C)[C@@H](C)CC)C(=O)N[C@@H](CC(=O)O)C(=O)N[C@H](CCCNC(=N)N)C(=O)NC [Peptide P-27401, [Dat^1, D-Ala^2, Gln^8, Orn^12, Abu^15, Orn^21, Nle^27, Asp^28, D-Arg^29]hGHRH(1-29)NH—CH3] (Desaminotyrosyl-[dA]DAIFTQSYR[Orn]VL[Abu]QLSAR[Orn]LLQDI[Nle]D[dR]-NHMe)	1.05	2.94	0.61	0.73	24.6 ± 5.3 ng/mL	217.9 ± 37.0 ng/mL	204.1 ± 23.7 ng/mL	significantly higher potencies at 30 minutes than at 15 minutes	58.8	0.93	253.4	2.27	1.59	–	–	–	–	–
CCCC[C@H](NC(=O)[C@@H](NC(=O)[C@H](CC(=O)O)NC(=O)[C@H](CCC(N)=O)NC(=O)[C@H](CC(C)C)NC(=O)[C@H](CC(C)C)NC(=O)[C@H](CCCN)NC(=O)[C@H](CCCNC(=N)N)NC(=O)[C@H](C)NC(=O)[C@H](CO)NC(=O)[C@H](CC(C)C)NC(=O)[C@H](CCC(N)=O)NC(=O)[C@H](CC)NC(=O)[C@H](CC(C)C)NC(=O)[C@@H](NC(=O)[C@H](CCCN)NC(=O)[C@H](CCCNC(=N)N)NC(=O)[C@H](Cc1ccc(O)cc1)NC(=O)[C@H](CO)NC(=O)[C@H](CCC(N)=O)NC(=O)[C@@H](NC(=O)[C@H](Cc1ccccc1)NC(=O)[C@@H](NC(=O)[C@H](C)NC(=O)[C@H](CC(=O)O)NC(=O)[C@@H](C)NC(=O)[C@H](Cc1ccc(O)cc1)N(C)C(C)=O)[C@@H](C)CC)[C@@H](C)O)C(C)C)[C@@H](C)CC)C(=O)N[C@@H](CC(=O)O)C(=O)NCCCCNC(=N)N [Peptide P-20351, [Ac—N—Me-Tyr^1, D-Ala^2, Gln^8, Orn^12, Abu^15, Orn^21, Nle^27, Asp^28, Agm^29] hGHRH(1-29)NH2] (Ac-[NMeY][dA]DAIFTQSYR[Orn]VL[Abu]QLSAR[Orn]LLQDI[Nle]D-Agmatine)	0.71	1.98	0.38	0.44	30.6 ± 7.2 ng/mL	90.8 ± 20.3 ng/mL	65.4 ± 10.1 ng/mL	weaker GH-releasing potency	18.8	0.30	33.6	0.30	1.26	weaker GH-releasing potency and GH receptor binding affinity	3.44 nM	–	–	–
CCCC[C@H](NC(=O)[C@@H](NC(=O)[C@H](CC(=O)O)NC(=O)[C@H](CCC(N)=O)NC(=O)[C@H](CC(C)C)NC(=O)[C@H](CC(C)C)NC(=O)[C@H](CCCN)NC(=O)[C@H](CCCNC(=N)N)NC(=O)[C@H](C)NC(=O)[C@H](CO)NC(=O)[C@H](CC(C)C)NC(=O)[C@H](CCC(N)=O)NC(=O)[C@H](CC)NC(=O)[C@H](CC(C)C)NC(=O)[C@@H](NC(=O)[C@H](CCCN)NC(=O)[C@H](CCCNC(=N)N)NC(=O)[C@H](Cc1ccc(O)cc1)NC(=O)[C@H](CO)NC(=O)[C@H](CCC(N)=O)NC(=O)[C@@H](NC(=O)[C@H](Cc1ccccc1)NC(=O)[C@@H](NC(=O)[C@H](C)NC(=O)[C@H](CC(=O)O)NC(=O)[C@H](C)NC(=O)[C@H](Cc1ccc(O)cc1)NC)[C@@H](C)CC)[C@@H](C)O)C(C)C)[C@@H](C)CC)C(=O)N[C@@H](CC(=O)O)C(=O)N[C@@H](CCCNC(=N)N)C(=O)NC [Peptide P-27406, [N—Me-Tyr^1, Gln^8, Orn^12, Abu^15, Orn^21, Nle^27, Asp^28]hGHRH(1-29) NH—CH3] (H-[NMeY]ADAIFTQSYR[Orn]VL[Abu]QLSAR[Orn]LLQDI[Nle]DR-NHMe)	2.95	8.22	0.47	0.50	21.3 ± 4.8 ng/mL	492.6 ± 21.8 ng/mL	282 ± 17.8 ng/mL	significantly higher potencies at 30 minutes than at 15 minutes	170	2.69*	449.7	–	14.5	–	–	–	–	–
[N—Me-Tyr^1, D-Ala^2, Gln^8, Orn^12, Abu^15, Orn^21, Nle^27, Asp^28, Har^30]hGHRH(1-30)NH—CH3 [Peptide P-27450]	–	–	–	–	–	–	–	–	–	–	–	–	–	–	–	0.07	0.11	0.49
[N—Me-Tyr^1, D-Ala^2, Gln^8, Orn^12, Abu^15, Orn^21, Nle^27, Asp^28, Apa^30]hGHRH(1-30)NH—CH2—CH3 [Peptide P-28475]	–	–	–	–	–	–	–	–	–	–	–	–	–	–	–	0.19	0.36	0.92
